Laboratory results published in BigSolDB 2.1.

CCCCCCCCCCCCCCCCCCCCCCCCCCCCO
solubility (mole fraction) (in n-hexanol, 298.2 K): 0.000906
solubility (mole fraction) (in n-hexanol, 303.2 K): 0.00126
solubility (mole fraction) (in n-hexanol, 308.2 K): 0.00238
solubility (mole fraction) (in n-hexanol, 313.2 K): 0.00436
solubility (mole fraction) (in n-hexanol, 318.2 K): 0.00758
solubility (mole fraction) (in n-hexanol, 323.2 K): 0.0148
solubility (mole fraction) (in n-hexanol, 328.2 K): 0.0291
solubility (mole fraction) (in n-hexanol, 333.2 K): 0.0602
solubility (mole fraction) (in n-pentanol, 298.2 K): 0.000644
solubility (mole fraction) (in n-pentanol, 303.2 K): 0.00115
solubility (mole fraction) (in n-pentanol, 308.2 K): 0.00222
solubility (mole fraction) (in n-pentanol, 313.2 K): 0.00375
solubility (mole fraction) (in n-pentanol, 318.2 K): 0.00658
solubility (mole fraction) (in n-pentanol, 323.2 K): 0.013
solubility (mole fraction) (in n-pentanol, 328.2 K): 0.026
solubility (mole fraction) (in toluene, 298.2 K): 0.0014
solubility (mole fraction) (in toluene, 303.2 K): 0.00246
solubility (mole fraction) (in toluene, 308.2 K): 0.00402
solubility (mole fraction) (in toluene, 313.2 K): 0.00744
solubility (mole fraction) (in toluene, 318.2 K): 0.0137
solubility (mole fraction) (in toluene, 323.2 K): 0.0291
solubility (mole fraction) (in toluene, 328.2 K): 0.0588
